The NIST ThermoML archive (doi:10.1016/j.jct.2007.07.005)

Experiment: xn = mol fraction of the nth substance listed
Conditions: Fluid (supercritical or subcritical phases), vibrating tube

CCCCCO [pentan-1-ol] + O=C=O
Conditions | mass density [kg/m3]
312.96 K, 512 kPa, x2 = 0 | 799.65
312.96 K, 1022 kPa, x2 = 0 | 800.04
312.96 K, 1998 kPa, x2 = 0 | 800.77
312.96 K, 3005 kPa, x2 = 0 | 801.53
312.96 K, 4003 kPa, x2 = 0 | 802.28
312.96 K, 5002 kPa, x2 = 0 | 803.02
312.96 K, 6018 kPa, x2 = 0 | 803.76
312.96 K, 6994 kPa, x2 = 0 | 804.49
312.96 K, 8008 kPa, x2 = 0 | 805.21
312.96 K, 9005 kPa, x2 = 0 | 805.93
312.96 K, 10008 kPa, x2 = 0 | 806.66
312.96 K, 11008 kPa, x2 = 0 | 807.37
312.96 K, 12000 kPa, x2 = 0 | 808.07
312.96 K, 13024 kPa, x2 = 0 | 808.78
312.96 K, 13987 kPa, x2 = 0 | 809.45
312.96 K, 15014 kPa, x2 = 0 | 810.14
312.96 K, 15991 kPa, x2 = 0 | 810.8
312.96 K, 17019 kPa, x2 = 0 | 811.48
312.96 K, 17991 kPa, x2 = 0 | 812.12
312.96 K, 19007 kPa, x2 = 0 | 812.79
312.96 K, 19992 kPa, x2 = 0 | 813.44
312.96 K, 21031 kPa, x2 = 0 | 814.1
312.96 K, 22041 kPa, x2 = 0 | 814.76
312.96 K, 23014 kPa, x2 = 0 | 815.41
312.96 K, 24003 kPa, x2 = 0 | 816.04
312.96 K, 25037 kPa, x2 = 0 | 816.73
313.09 K, 6030 kPa, x2 = 0.3624 | 824
313.09 K, 6997 kPa, x2 = 0.3624 | 825.21
313.09 K, 8012 kPa, x2 = 0.3624 | 826.4
313.09 K, 9018 kPa, x2 = 0.3624 | 827.51
313.09 K, 10006 kPa, x2 = 0.3624 | 828.5
313.09 K, 11027 kPa, x2 = 0.3624 | 829.51
313.09 K, 12043 kPa, x2 = 0.3624 | 830.52
313.09 K, 13029 kPa, x2 = 0.3624 | 831.45
313.09 K, 13978 kPa, x2 = 0.3624 | 832.37
313.09 K, 15011 kPa, x2 = 0.3624 | 833.36
313.09 K, 16002 kPa, x2 = 0.3624 | 834.27
313.09 K, 17008 kPa, x2 = 0.3624 | 835.17
313.09 K, 17989 kPa, x2 = 0.3624 | 836.08
313.09 K, 19002 kPa, x2 = 0.3624 | 837
313.09 K, 20008 kPa, x2 = 0.3624 | 837.88
313.09 K, 21025 kPa, x2 = 0.3624 | 838.76
313.09 K, 21983 kPa, x2 = 0.3624 | 839.58
313.09 K, 23039 kPa, x2 = 0.3624 | 840.51
313.09 K, 24001 kPa, x2 = 0.3624 | 841.34
313.1 K, 7022 kPa, x2 = 0.4651 | 831.11
313.1 K, 8019 kPa, x2 = 0.4651 | 832.63
313.1 K, 9041 kPa, x2 = 0.4651 | 834.14
313.1 K, 10006 kPa, x2 = 0.8067 | 827.85
313.1 K, 10013 kPa, x2 = 0.4651 | 835.54
313.1 K, 10035 kPa, x2 = 0.9757 | 716.11
313.1 K, 11006 kPa, x2 = 0.8067 | 834.45
313.1 K, 11016 kPa, x2 = 0.4651 | 836.96
313.1 K, 11020 kPa, x2 = 0.9757 | 742.56
313.1 K, 11992 kPa, x2 = 0.9757 | 762.5
313.1 K, 12018 kPa, x2 = 0.4651 | 838.32
313.1 K, 12019 kPa, x2 = 0.8067 | 840.12
313.1 K, 13002 kPa, x2 = 0.8067 | 845.06
313.1 K, 13005 kPa, x2 = 0.4651 | 839.67
313.1 K, 13014 kPa, x2 = 0.9757 | 779.62
313.1 K, 13996 kPa, x2 = 0.8067 | 849.67
313.1 K, 14022 kPa, x2 = 0.9757 | 793.9
313.1 K, 14035 kPa, x2 = 0.4651 | 841.03
313.1 K, 15002 kPa, x2 = 0.9757 | 806.06
313.1 K, 15010 kPa, x2 = 0.4651 | 842.33
313.1 K, 15017 kPa, x2 = 0.8067 | 854.05
313.1 K, 16001 kPa, x2 = 0.9757 | 817.16
313.1 K, 16018 kPa, x2 = 0.4651 | 843.63
313.1 K, 16028 kPa, x2 = 0.8067 | 858.11
313.1 K, 17009 kPa, x2 = 0.8067 | 861.86
313.1 K, 17011 kPa, x2 = 0.4651 | 844.89
313.1 K, 17026 kPa, x2 = 0.9757 | 827.46
313.1 K, 17998 kPa, x2 = 0.9757 | 836.37
313.1 K, 18010 kPa, x2 = 0.4651 | 846.15
313.1 K, 18017 kPa, x2 = 0.8067 | 865.48
313.1 K, 18996 kPa, x2 = 0.4651 | 847.39
313.1 K, 19027 kPa, x2 = 0.8067 | 868.98
313.1 K, 19034 kPa, x2 = 0.9757 | 845.17
313.1 K, 19996 kPa, x2 = 0.8067 | 872.2
313.1 K, 20005 kPa, x2 = 0.9757 | 852.85
313.1 K, 20038 kPa, x2 = 0.4651 | 848.66
313.1 K, 20988 kPa, x2 = 0.4651 | 849.83
313.1 K, 20988 kPa, x2 = 0.9757 | 860.09
313.1 K, 21011 kPa, x2 = 0.8067 | 875.4
313.1 K, 21994 kPa, x2 = 0.9757 | 867.1
313.1 K, 22004 kPa, x2 = 0.8067 | 878.43
313.1 K, 22029 kPa, x2 = 0.4651 | 851.07
313.1 K, 22839 kPa, x2 = 0.9757 | 872.7
313.1 K, 22988 kPa, x2 = 0.4651 | 852.24
313.1 K, 22990 kPa, x2 = 0.8067 | 881.33
313.11 K, 3017 kPa, x2 = 0.0816 | 805.83
313.11 K, 4040 kPa, x2 = 0.0816 | 806.66
313.11 K, 5020 kPa, x2 = 0.0816 | 807.44
313.11 K, 6033 kPa, x2 = 0.0816 | 808.27
313.11 K, 6980 kPa, x2 = 0.0816 | 809.01
313.11 K, 8003 kPa, x2 = 0.0816 | 809.81
313.11 K, 9050 kPa, x2 = 0.0816 | 810.62
313.11 K, 10006 kPa, x2 = 0.0816 | 811.35
313.11 K, 10023 kPa, x2 = 0.9216 | 783.1
313.11 K, 11007 kPa, x2 = 0.9216 | 796.3
313.11 K, 11029 kPa, x2 = 0.0816 | 812.13
313.11 K, 12014 kPa, x2 = 0.9216 | 807.61
313.11 K, 12040 kPa, x2 = 0.0816 | 812.89
313.11 K, 13034 kPa, x2 = 0.0816 | 813.62
313.11 K, 13034 kPa, x2 = 0.9216 | 817.54
313.11 K, 14013 kPa, x2 = 0.9216 | 826.1
313.11 K, 14032 kPa, x2 = 0.0816 | 814.36
313.11 K, 15008 kPa, x2 = 0.0816 | 815.08
313.11 K, 15032 kPa, x2 = 0.9216 | 834.15
313.11 K, 16011 kPa, x2 = 0.9216 | 841.25
313.11 K, 16019 kPa, x2 = 0.0816 | 815.8
313.11 K, 17000 kPa, x2 = 0.9216 | 847.91
313.11 K, 17024 kPa, x2 = 0.0816 | 816.51
313.11 K, 18011 kPa, x2 = 0.9216 | 854.26
313.11 K, 18058 kPa, x2 = 0.0816 | 817.22
313.11 K, 18990 kPa, x2 = 0.0816 | 817.88
313.11 K, 19003 kPa, x2 = 0.9216 | 860.12
313.11 K, 20009 kPa, x2 = 0.9216 | 865.74
313.11 K, 20043 kPa, x2 = 0.0816 | 818.6
313.11 K, 20983 kPa, x2 = 0.9216 | 870.88
313.11 K, 21042 kPa, x2 = 0.0816 | 819.28
313.11 K, 22024 kPa, x2 = 0.0816 | 819.97
313.11 K, 23035 kPa, x2 = 0.0816 | 820.66
